How the values were obtained:
[1] = test system: Fibroblasts (primary human lung and dermal, HFL-1, 3T3 etc); experiment: Cell proliferation assay (BrdU incorporation); format: cell-based; conditions: HFL1, stimulant (LPA, TGFb, serum etc), 50% inhibition of the increase of BrdU incorporation
Method: Assay of Inhibitory Effect on Cell Proliferation (BrdU Incorporation)
Fibroblasts (primary human lung and dermal, HFL-1, 3T3 etc) were plated on a 96-well plate and serum starved for 24-48 hours. The media were then exchanged for media containing stimulants (LPA, TGFb, serum etc) and cultured further for 16-24 hours before BrdU addition. After culturing for another 8 hours, cells were washed with PBS and the amount of BrdU incorporated into the cells was assayed by absorbance at 450 nm using the Cell proliferation ELISA system (RPN250, Amersham LIFE SCIENCE). The difference between the amount of BrdU incorporated in the stimulant-added well and the amount of BrdU incorporated in the well containing no stimulant represented the amount of BrdU incorporation accelerated by stimulant. The increase of BrdU incorporation without the addition of test compounds was set as 100% and the concentration of compound with 50% inhibition in the increase of BrdU incorporation (IC50 value) was determined. The test compounds were added 0-30 min before stimulant addition.
Compounds of some embodiments were prepared according to synthetic methods described herein and assay data obtained for IC50 for BrdU inhibition. The assay data obtained is presented in Table 3, in which A=less than 50 μM, B=greater than or equal to 50 μM and less than or equal to 200 μM; and C=greater than 200 μM.

[2] = test system: TGF-b induced Endothelin-1 production; experiment: ET-1 assay: inhibitory effect on TGF-b induced endothelin-1 production; format: cell-based; conditions: Homo sapiens, Fibroblast; fibroblasts, stimulant (TGFb, serum, LPA etc), ET-1 in media by ELISA, 4-parameter fit
Summary of the method: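 Fibroblasts (primary human lung/dermal, HFL-1, 3T3) serum-starved 0-48 h, preincubated ~30 min with compound, then stimulated (TGFb, serum or LPA) for 16-48 h. Secreted ET-1 measured by ELISA; EC50 from 4-parameter logistic fit, with CC50 from ATPlite in the same wells.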

Row | Compound | IC50 [1] | EC50 [2]
1 | Cc1cc(=O)n(-c2ccc(OC(F)(F)F)cc2)cc1-c1cccc2c1OCCO2 [Compound 204] | < 50 µM | < 50 µM
2 | Cn1cc(-c2cn(-c3ccc(OC(F)(F)F)cc3)c(=O)c3nnn(CCF)c23)cn1 [Compound 687] | < 50 µM | < 50 µM
3 | CCOC(=O)Nc1cccc(-n2cc(-c3ccc(F)cc3)c(C)cc2=O)c1 [Compound 416] | < 50 µM | < 50 µM
4 | Cn1cc(-c2cn(-c3ccc(OC(F)(F)F)cc3)c(=O)cc2NCc2cccnc2)cn1 [Compound 160] | < 50 µM | 50 to 200 µM
5 | Cn1cc(-c2cn(-c3ccc(OC(F)(F)F)cc3)c(=O)c3[nH]ncc23)cn1 [Compound 588] | < 50 µM | > 200 µM
6 | Cc1ccc(=O)n(CCc2ccccc2)c1 [Compound 80] | > 200 µM | 50 to 200 µM
7 | O=C(c1ccccc1)n1cc(-c2ccc(=O)n(-c3ccccc3)c2)cn1 [Compound 68] | > 200 µM | > 200 µM
8 | Cc1cc(-c2ccc(F)cc2)cn(-c2ccccc2)c1=O [Compound 351] | 50 to 200 µM | < 50 µM
9 | Cc1cc(=O)n(-c2ccc(OC(C)C)cc2C)cc1-c1cnn(C)c1 [Compound 234] | > 200 µM | > 200 µM
10 | Cn1cc(-c2cn(-c3ccc(OC(F)(F)F)cc3)c(=O)c3scnc23)cn1 [Compound 583] | < 50 µM | < 50 µM
11 | CNC(=O)Nc1cccc(-n2cc(-c3ccc(F)cc3)c(C)cc2=O)c1 [Compound 419] | 50 to 200 µM | 50 to 200 µM
12 | CCn1cc2c(-c3cnn(C)c3)cn(-c3ccc(OC(F)(F)F)cc3)c(=O)c2n1 [Compound 657] | < 50 µM | < 50 µM
13 | Cc1ccc(=O)n(-c2cc(F)c(F)c(F)c2)c1 [Compound 282] | > 200 µM | > 200 µM
14 | Cc1cc(=O)n(-c2ccc(OC(F)(F)F)cc2)cc1-c1cn[nH]c1 [Compound 218] | < 50 µM | < 50 µM
15 | Cc1cc(=O)n(-c2ccc(OC(F)(F)F)cc2)cc1-c1ccc2scnc2c1 [Compound 251] | < 50 µM | < 50 µM
16 | CC(C)n1ccc2c(-c3cnn(C)c3)cn(-c3ccc(OC(F)(F)F)cc3)c(=O)c21 [Compound 647] | < 50 µM | < 50 µM
17 | CCn1nnc2c(-c3ccc(F)cc3)cn(-c3ccc(OC(F)(F)F)cc3)c(=O)c21 [Compound 683] | < 50 µM | < 50 µM
18 | CCn1nnc2c(-c3cnn(C)c3)cn(-c3ccc(OC(F)(F)F)cc3)c(=O)c21 [Compound 625] | < 50 µM | < 50 µM
19 | Cc1cc(=O)n(-c2ccc(NC(N)=O)cc2)cc1-c1ccc(F)cc1 [Compound 418] | 50 to 200 µM | 50 to 200 µM
20 | CN1C(=O)COc2c(-c3ccc(F)cc3)cn(-c3ccc(OC(F)(F)F)cc3)c(=O)c21 [Compound 53] | > 200 µM | > 200 µM
21 | Cc1cc(=O)n(-c2ccc(OC(F)(F)F)cc2)cc1-c1ccc2nonc2c1 [Compound 259] | < 50 µM | 50 to 200 µM

Row | Compound | IC50 [1] | EC50 [2]
22 | O=c1cc(NCc2ccccn2)ccn1-c1ccc(OC(F)(F)F)cc1 [Compound 547] | < 50 µM | < 50 µM
23 | Cc1cc(=O)n(-c2ccc(OC(F)(F)F)cc2)cc1-c1ccc2ncsc2c1 [Compound 260] | < 50 µM | 50 to 200 µM
24 | CCOc1ccc(-n2cc(-c3ccc(F)cc3)c(OC)cc2=O)c(C)c1 [Compound 119] | < 50 µM | < 50 µM
25 | Cc1cc(=O)n(-c2cccc(NC(N)=O)c2)cc1-c1ccc(F)cc1 [Compound 188] | < 50 µM | < 50 µM
26 | Cc1cc(=O)n(-c2ccc(OC(F)(F)F)cc2)cc1-c1cccc2scnc12 [Compound 261] | < 50 µM | > 200 µM
27 | Cc1cc(=O)n(-c2ccccc2NC(N)=O)cc1-c1ccc(F)cc1 [Compound 557] | < 50 µM | < 50 µM
28 | Cn1cc(-c2cn(-c3ccc(OC(F)(F)F)cc3)c(=O)cc2NCc2cnccn2)cn1 [Compound 411] | < 50 µM | 50 to 200 µM
29 | CCn1cnc2c(-c3cnn(C)c3)cn(-c3ccc(OC(F)(F)F)cc3)c(=O)c21 [Compound 617] | 50 to 200 µM | < 50 µM
30 | Cn1cc(-c2cn(-c3ccc(OC(F)(F)F)cc3)c(=O)c3c2ccn3C)cn1 [Compound 394] | < 50 µM | < 50 µM
31 | Cn1cc(-c2cn(-c3ccc(OC(F)(F)F)cc3)c(=O)cc2NCc2ccccn2)cn1 [Compound 161] | < 50 µM | < 50 µM
32 | Cc1cc(=O)n(-c2ccc(OC(F)(F)F)cc2)cc1-c1cccc2c1OCO2 [Compound 203] | < 50 µM | < 50 µM
33 | CC(C)NC(=O)n1cc(-c2ccc(=O)n(-c3ccccc3)c2)cn1 [Compound 75] | 50 to 200 µM | 50 to 200 µM
34 | CCOc1ccc(-n2cc(-c3ccc(F)cc3)c(C)cc2=O)c(C)c1 [Compound 175] | < 50 µM | 50 to 200 µM
35 | COCCOCCOCCOc1ccc(-n2cc(C(C)=O)ccc2=O)cc1 [Compound 21] | > 200 µM | > 200 µM
36 | Cc1ccc(-n2cc(-c3ccc(F)cc3)c(C)cc2=O)cc1 [Compound 216] | < 50 µM | 50 to 200 µM
37 | Cc1cc(=O)n(-c2ccc(OC(F)(F)F)cc2)cc1-c1ccc2oc(=O)[nH]c2c1 [Compound 553] | < 50 µM | < 50 µM
38 | Cn1cc(-c2cn(-c3ccc(C#N)cc3)c(=O)c3cccnc23)cn1 [Compound 395] | 50 to 200 µM | 50 to 200 µM
39 | Cn1cc(-c2cn(-c3ccc(OC(F)(F)F)cc3)c(=O)cc2NCc2ccc(Cl)cc2)cn1 [Compound 406] | < 50 µM | 50 to 200 µM
40 | CCOc1ccc(-n2cc(-c3cnn(C)c3)c(NCc3ccccc3)cc2=O)c(C)c1 [Compound 543] | < 50 µM | < 50 µM
41 | Cc1cc(=O)n(-c2ccc(OC(F)(F)F)cc2)cc1-c1ccc2c(c1)OC(F)(F)O2 [Compound 208] | 50 to 200 µM | 50 to 200 µM
42 | Cc1cn(C)c2c(=O)n(-c3ccc(OC(F)(F)F)cc3)cc(-c3ccc(F)cc3)c12 [Compound 49] | < 50 µM | < 50 µM

Row | Compound | IC50 [1] | EC50 [2]
43 | CCn1cnc2c(=O)n(-c3ccc(OC(F)(F)F)cc3)cc(-c3cnn(C)c3)c21 [Compound 636] | > 200 µM | > 200 µM
44 | CCOc1ccc(-n2cc(-c3cn[nH]c3)ccc2=O)c(C)c1 [Compound 376] | > 200 µM | < 50 µM
45 | CCn1ccc2c(-c3cnn(C)c3)cn(-c3ccc(OC(F)(F)F)cc3)c(=O)c21 [Compound 60] | < 50 µM | < 50 µM
46 | Cn1cc(-c2c[nH]c(=O)cc2NCc2ncccn2)cn1 [Compound 542] | < 50 µM | < 50 µM
47 | COc1cc(-n2cc(-c3ccc(F)cc3)c(C)cc2=O)cc(OC)c1OC [Compound 180] | < 50 µM | 50 to 200 µM
48 | Cn1cc(-c2cn(-c3ccc(OC(F)(F)F)cc3)c(=O)cc2NCc2ccc(Cl)cc2Cl)cn1 [Compound 405] | < 50 µM | < 50 µM
49 | Cc1ccc(=O)n(-c2ccc(OC(F)(F)F)cc2)n1 [Compound 360] | 50 to 200 µM | < 50 µM
50 | COc1ccc(CNc2cc(=O)n(-c3ccc(OC(F)(F)F)cc3)cc2-c2cnn(C)c2)cc1 [Compound 134] | < 50 µM | < 50 µM
51 | CCOc1ccc(Oc2cc(=O)n(-c3ccc(OC(F)(F)F)cc3)cc2-c2cnn(C)c2)cc1C#N [Compound 157] | > 200 µM | < 50 µM
52 | O=c1c2nccnc2c(-c2cn[nH]c2)cn1-c1ccc(Cl)cc1 [Compound 399] | < 50 µM | > 200 µM
53 | O=C1COc2c(-c3ccc(F)cc3)cn(-c3ccc(OC(F)(F)F)cc3)c(=O)c2N1 [Compound 52] | > 200 µM | > 200 µM
54 | O=c1c2[nH]ccc2ccn1-c1ccc(OC(F)(F)F)cc1 [Compound 609] | < 50 µM | < 50 µM
55 | Cc1nc2c(=O)n(-c3ccc(OC(F)(F)F)cc3)ccc2o1 [Compound 570] | > 200 µM | > 200 µM
56 | Cn1ccc2c(-c3cn[nH]c3)cn(-c3ccc(OC(F)(F)F)cc3)c(=O)c21 [Compound 602] | < 50 µM | < 50 µM
57 | Cn1cc(-c2cn(-c3ccc(OC(F)(F)F)cc3)c(=O)c3c2ccn3C2CC2)cn1 [Compound 649] | 50 to 200 µM | < 50 µM
58 | CCn1c(=O)oc2ccc(-c3c[nH]c(=O)cc3C)cc21 [Compound 562] | < 50 µM | < 50 µM
59 | Cc1cc(=O)n(-c2ccc(Cl)cc2)cc1-c1ccnnc1 [Compound 432] | 50 to 200 µM | > 200 µM
60 | CCOc1ccc(-n2cc(C(F)(F)F)ccc2=O)c(C)c1 [Compound 278] | 50 to 200 µM | 50 to 200 µM
61 | CCOc1ccc(-n2cc(-c3cnn(C)c3)c(OCCOC)cc2=O)c(C)c1 [Compound 550] | < 50 µM | < 50 µM
62 | CCOc1ccc(-n2cc(-c3cn[nH]c3)c3ccn(C)c3c2=O)c(C)c1 [Compound 601] | < 50 µM | < 50 µM

From patent US10233195B2, “Anti-fibrotic pyridinones” (InterMune, Inc., priority 2014, dated 2019)
